Each structure is given as a SMILES string. Peptide text beside a SMILES is read from it. * marks the point of attachment. Cbz = O=C(OCc1ccccc1)*

In this test the target is Replicase polyprotein 1ab (Severe acute respiratory syndrome coronavirus 2) (UniProt P0DTD1). The test can be described thus: Inhibition of SARS-CoV-2 3CL-Pro proteolytic cleavage of a dual-labeled substrate by FRET. On the set-up: assay stage. Format: functional.
Consider `COc1ncc(-c2ccc3nccc(-c4ccnnc4)c3c2)cc1NS(=O)(=O)c1ccc(F)cc1F`, for which the IC50 relative is greater than 20 µM. `Cc1ccc(S(=O)(=O)N[C@@H](Cc2ccccc2)C(=O)CCl)cc1`: the IC50 relative was 1.37 µM. For `O=C(c1cccs1)c1no[n+]([O-])c1C(=O)c1cccs1` the value was 11 µM.

For the molecule `CCN(CC)S(=O)(=O)c1cccc(-n2sc3ccccc3c2=O)c1`, the IC50 relative was less than 0.02 µM.

Turning to `Cn1sc(=O)n(Cc2ccccc2)c1=O`, the IC50 relative is less than 0.02 µM. `Cc1ccc(-n2sc(=O)n(Cc3ccc(F)cc3)c2=O)cc1`: the IC50 relative is less than 0.02 µM. For `Nc1nc(S)c2ncn(C3OC(CO)C(O)C3O)c2n1` (configuration not stated) the value was 1.07 µM. For `Sc1nnnn1-c1ccccc1` the value was 2.36 µM. For the molecule `O=C(/C=C/c1ccc2ccccc2n1)c1ccncc1`, the IC50 relative is greater than 20 µM.

On to `O=C(O)c1c(Cl)c(Cl)c(Cl)c(Cl)c1-c1c2cc(I)c(=O)c(I)c-2oc2c(I)c(O)c(I)cc12`, for which the IC50 relative is greater than 20 µM.

Regarding `Cc1cc(-c2ccc(/N=N/c3ccc4c(S(=O)(=O)O)cc(S(=O)(=O)O)c(N)c4c3O)c(C)c2)ccc1/N=N/c1ccc2c(S(=O)(=O)O)cc(S(=O)(=O)O)c(N)c2c1O`, the IC50 relative is greater than 20 µM. In the case of `O=c1cc(-c2ccccc2)oc2cc(O)c(O)c(O)c12`, the IC50 relative is greater than 20 µM. For `S=C=NCc1ccccc1` the value was greater than 20 µM; for `S=C=Nc1cccc(NC(=S)NCCCCNC(=S)Nc2cccc(N=C=S)c2)c1`, greater than 20 µM; for `NC(Cc1cc(O)c(O)cc1O)C(=O)O` (racemic), greater than 20 µM. On to `CN(C)S(=O)(=O)c1cccc(-n2sc3ccccc3c2=O)c1`, for which the IC50 relative is less than 0.02 µM. As to `O=C(O)[C@@H](S)[C@@H](S)C(=O)O`, the IC50 relative is 6.74 µM. With `O=C1C(Cl)=C(Cl)C(=O)C(Cl)=C1Cl` the figure was less than 0.02 µM.

For `CCOC(=O)c1c(N)sc(-c2ccccc2)c1C`, the IC50 relative was 3.28 µM. For `COc1ccc2[nH]c([S+]([O-])Cc3ncc(C)c(OC)c3C)nc2c1` (configuration not stated), the IC50 relative was greater than 20 µM. Regarding `O=c1c2ccccc2sn1-c1ccccc1`, the IC50 relative is less than 0.02 µM.

Consider `COC(=O)CC[C@H](NC(=O)[C@H](CC(=O)OC)NC(=O)OCc1ccccc1)C(=O)N[C@H](C(=O)N[C@@H](CC(=O)OC)C(=O)CF)C(C)C`, for which the IC50 relative is less than 0.02 µM. Consider `CCOc1cc(C(Nc2cc(C)ccn2)c2ccc3cccnc3c2O)ccc1OC` (configuration not stated), for which the IC50 relative was 0.269 µM.

`CCN(CC)C(=S)S`: the IC50 relative is greater than 20 µM.

Take `C[C@H]1COC2=C1C(=O)C(=O)c1c2ccc2c1CCCC2(C)C`: the IC50 relative is greater than 20 µM.

On to `COc1ccnc(C[S+]([O-])c2nc3cc(OC(F)F)ccc3[nH]2)c1OC` (configuration not stated), for which the IC50 relative was greater than 20 µM. For `O=c1c(O)cccc2cc(O)c(O)c(O)c12`, the IC50 relative was 6.98 µM. `O=C(CCl)c1ccccc1`: the IC50 relative is 0.19 µM. `Cc1cc(-c2ccc(/C=C3/S/C(=N\c4ccc(Cl)c(C(=O)O)c4)NC3=O)o2)c([N+](=O)[O-])cc1C`: the IC50 relative is greater than 20 µM.

For `Cc1c(-c2ccc(N3CCc4cccc(C(=O)Nc5nc6ccccc6s5)c4C3)nc2C(=O)O)cnn1CC12CC3CC(CC(C3)C1)C2`, the IC50 relative is greater than 20 µM. Take `CN1CCN(C(=O)c2ccc(-c3ccc4c(C=O)c(O)ccc4c3)s2)CC1`: the IC50 relative is 1.94 µM. In the case of `CC(C)(C)OC(=O)NCCc1nnc(S(=O)(=O)Cc2ccc(Cl)cc2Cl)o1`, the IC50 relative was 4.22 µM. Take `Cc1ccc(-n2sc3ccccc3c2=O)cc1`: the IC50 relative is less than 0.02 µM. For `O=C(O)C1=CC(=C(c2ccc(O)c(C(=O)O)c2)c2ccc(O)c(C(=O)O)c2)C=CC1=O`, the IC50 relative was greater than 20 µM. `CC(Cc1ccc(O)c(O)c1)C(C)Cc1ccc(O)c(O)c1` (configuration not stated): the IC50 relative was greater than 20 µM. Consider `O=[N+]([O-])c1ccc(Sc2cccc[n+]2[O-])c2nonc12`, for which the IC50 relative is less than 0.02 µM. For `O=C(Nc1ccccc1)Nc1ccc(-c2ccc(C(=O)[C@@H]3CCC[C@H]3C(=O)O)cc2)cc1`, the IC50 relative is greater than 20 µM. In the case of `Nc1ccc(O)c2ncccc12`, the IC50 relative was 2.05 µM. For `[O-][n+]1ccccc1S` the value was 0.0487 µM; for `COc1ccc2[nH]c(S)nc2c1`, greater than 20 µM; for `Cc1ccc(C)c(-n2sc3cc(F)ccc3c2=O)c1`, less than 0.02 µM. `O=C(c1ccc(Cl)cc1)c1cc([N+](=O)[O-])ccc1N1CCOCC1`: the IC50 relative was greater than 20 µM. For the molecule `CCCCn1c(NC(=O)c2cccs2)c(C#N)c2nc3ccccc3nc21`, the IC50 relative is greater than 20 µM. For `Oc1cc2c(cc1C(c1ccc(C(F)(F)F)cc1)N1CCOCC1)OCO2` (configuration not stated), the IC50 relative is 0.545 µM. On to `Sc1nnc(Nc2ccccc2)s1`, for which the IC50 relative was 0.39 µM. On to `COc1ccc2[nH]c3c(S)ncnc3c2c1`, for which the IC50 relative is greater than 20 µM.

On to `O=C(NC(=S)N1CCCc2ccccc21)c1ccccc1`, for which the IC50 relative is greater than 20 µM. In the case of `CC(C)C[C@@H](C=O)NC(=O)[C@H](CC(C)C)NC(=O)[C@H](CC(C)C)NC(=O)OCc1ccccc1` (Cbz-Leu-Leu-Leu-aldehyde), the IC50 relative was greater than 20 µM. For the molecule `CC1=CC(=O)c2ccccc2C1=O`, the IC50 relative was greater than 20 µM.

As to `COc1cc(N(C)C)cc(CN(C)CCc2ccc([N+](=O)[O-])cc2)c1O`, the IC50 relative is 6.09 µM. For `Sc1nnc(-c2ccccc2Cl)o1` the value was greater than 20 µM. For `CCN1CCN(C(c2ccc(C(F)(F)F)cc2)c2ccc3cccnc3c2O)CC1` (configuration not stated), the IC50 relative was 0.152 µM.

The record behind these values is ChEMBL document CHEMBL5303709, “ECBD screening data for assay EOS300041” (2022).
